Results taken from patent US9200008B2 (ASKA PHARMACEUTICAL CO., LTD., priority 2010, dated 2015).

The compounds below were run on Human prostate cancer cell lines (PC-3 cells) (assay: Measurement of cell death-inducing activity (Test Example 1)). Conditions: PC-3, 48 h, 48 hours after addition, tested at 10, 1, 0.1, 0.025 and 0.00625 μmol/L, qualitative evaluation of 10 fields, read-out: Concentration showing the cell death-inducing activity (cell death-inducing rate not less than 40%).
Type: cell-based
Procedure: The cell death-inducing activity of the compound represented by the formula (1) or the salt thereof was measured as follows.
Human prostate cancer cell lines (PC-3 cells) were seeded to 6-well plates at 1×10^5 cells/2 mL/well, and cultured in the presence of 5% CO2 at 37° C. for 48 hours. Thereafter, each compound was added thereto so as to provide 10, 1, 0.1, 0.025 and 0.00625 μmol/L. As a control, DMSO was added. After the addition, the cells were continuously cultured for 48 hours. […] When the cell death-inducing rate was not less than 40%, the compound was judged to have the cell death-inducing activity.

Structure (SMILES)	minimal effective concentration [µM]
CCc1nc2cc(COC(=O)Nc3sc(-c4ccc(C)cc4C)nc3C)ccc2n1C [Example 9-83]	0.1
COc1ccccc1-c1cc(COC(=O)Nc2ccc3c(c2)nc2n3CCCC2)sn1 [Example 47-5]	0.1
CCn1cc2cc(COC(=O)Nc3sc(-c4ccccc4OC)nc3C)ccc2n1 [Example 9-152]	0.1
COc1ccc(/C=N/NC(=O)c2sc(-c3cccnc3)nc2C)cc1O [Example 23-41]	1
COc1cc(Cl)ccc1-c1nc(C)c(C(=O)NN(C)Cc2ccc3c(c2)CCO3)s1 [Example 16-18]	1
CCn1nc(-c2ccc(C)cc2C)cc1NC(=O)OCc1ccc2c(cnn2C)c1 [Example 9-286]	0.1
Cc1nc(-c2ccc(F)cc2Cl)sc1NC(=O)OCc1ccc2c(cnn2C)c1 [Example 9-131]	0.1
O=C(Nc1ccc2c(c1)nc1n2CCCC1)OCc1cc(-c2ccc(Cl)cc2Cl)ns1 [Example 47-8]	1
CCn1nc(-c2ccc(C)cc2C)cc1COC(=O)Nc1ccc2c(c1)nc1n2CCCC1 [Example 13-123]	0.025
COc1ccc(/C=N/NC(=O)c2cc(-c3ccc(Cl)cc3OC)cn2C)cc1 [Example 23-168, 4-(4-Chloro-2-methoxyphenyl)-1-methyl-1H-pyrrole-2-carboxylic acid (4-methoxybenzylidene)hydrazide]	1
CCn1cc2cc(COC(=O)Nc3sc(-c4ccc(Cl)cc4OC)nc3C)ccc2n1 [Example 9-154]	0.025
COc1ccccc1-c1nc(C)c(NC(=O)OCc2ccc3c(c2)nc2n3CCC2)s1 [Example 9-101]	0.1
Cn1nc(NC(=O)OCc2ccc3c(c2)ncn3C)cc1-c1ccccc1 [Example 9-306]	10
COc1cc(C)ccc1-c1nc(C)c(NC(=O)OCc2ccc3ncsc3c2)s1 [Example 36-2]	1
CCn1c(C)nc2cc(NC(=O)OCc3sc(-c4ccc(C)cc4C)nc3C)ccc21 [Example 13-20]	1
Cc1cc(Cl)ccc1-c1nc(C)c(NC(=O)OCc2ccc3c(c2)nc(C)n3C)s1 [Example 9-81]	0.025
CCn1cnc2cc(NC(=O)OCc3sc(-c4ccc(C)cc4C)nc3C)ccc21 [Example 13-15]	0.025
CCn1cnc2cc(COC(=O)Nc3sc(-c4ccc(F)cc4OC)nc3C)ccc21 [Example 9-58]	0.00625
CCn1cnc2cc(COC(=O)Nc3cc(-c4ccc(Cl)cc4Cl)nn3C)ccc21 [Example 9-209]	0.025
COc1cc(Cl)ccc1-c1cc(NC(=O)OCc2ccc3c(c2)nc2n3CCC2)n(C)n1 [Example 9-258]	0.025
CCc1nc(-c2ccc(C)cc2OC)sc1NC(=O)OCc1ccc2c(c1)ncn2C [Example 9-344]	0.00625
Cc1cc(F)ccc1-c1nc(C)c(NC(=O)OCc2ccc3c(c2)nnn3C)s1 [Example 9-19]	0.025

Structure (SMILES)	minimal effective concentration [µM]
COc1ccc(CN(C)NC(=O)c2sc(-c3cccc(C)c3C)nc2C)cc1 [Example 16-5]	10
CCn1nc(-c2ccc(F)cc2OC)cc1NC(=O)OCc1ccc2c(c1)nc1n2CCOC1 [Example 9-246]	0.1
CCn1nc(-c2ccc(Cl)cc2Cl)cc1NC(=O)OCc1ccc2c(c1)ncn2C [Example 9-208]	0.025
COc1cc(Cl)ccc1-c1cc(COC(=O)Nc2ccc3c(cnn3C)c2)n(C)n1 [Example 13-127]	0.1
CCc1nc(-c2ccc(F)cc2OC)sc1NC(=O)OCc1ccc2c(c1)ncn2CC [Example 9-346]	0.025
Cc1nc(-c2cccs2)sc1NC(=O)OCc1ccc2c(c1)ncn2C [Example 9-191]	10
Cc1cc(Cl)ccc1-c1nc(C)c(COC(=O)Nc2ccc3c(c2)nc2n3CCSC2)s1 [Example 43-2]	0.025
CCn1cnc2cc(NC(=O)OCc3sc(-c4ccc(F)cc4Cl)nc3C)ccc21 [Example 13-18]	0.025
CCc1nc(-c2ccc(Cl)cc2C)sc1NC(=O)OCc1ccc2c(c1)ncn2CC [Example 9-345]	0.025
COc1cc(Cl)ccc1-c1nscc1NC(=O)OCc1ccc2c(c1)ncn2C [Example 45-5]	0.1
CCn1nc(-c2ccc(C)cc2C)cc1NC(=O)OCc1ccc2cn(C)nc2c1 [Example 9-303]	1
CCn1nc(-c2ccc(F)cc2OC)cc1NC(=O)OCc1ccc2c(c1)nc1n2CCC1 [Example 9-257]	0.1
Cc1cc(Cl)ccc1-c1nc(C)c(C(=O)NN(C)Cc2ccc3c(ccn3C)c2)s1 [Example 17-2]	0.025
COc1cc(Cl)ccc1-c1cc(NC(=O)OCc2ccc3c(c2)ncn3C)nn1C [Example 9-309]	10
Cc1cc(F)ccc1-c1nc(C)c(COC(=O)Nc2ccc3c(c2)nc2n3CCCC2)s1 [Example 13-34]	0.025
COc1ccc(/C=N/NC(=O)c2sc(-c3ccccc3)nc2C)cc1O [Example 23-53]	0.1
Cc1cc(F)ccc1-c1nc(C)c(NC(=O)OCc2ccc3c(c2)nc2n3CCC2)s1 [Example 9-106]	0.025
CCc1nc(-c2ccc(C)cc2OC)sc1NC(=O)OCc1ccc2c(c1)ncn2CC [Example 9-165]	0.00625
CCn1nc(-c2ccc(Cl)cc2OC)cc1NC(=O)OCc1ccc2c(c1)nc1n2CCC1 [Example 9-259]	0.025
COc1ccc(CN(C)NC(=O)c2sc(-c3ccc(Cl)cc3OC)nc2C)cc1 [Example 16-1, 2-(4-Chloro-2-methoxyphenyl)-4-methylthiazole-5-carboxylic acid N′-(4-methoxybenzyl)-N′-methyl hydrazide]	0.1
COc1cc(Cl)ccc1-c1cc(COC(=O)Nc2ccc3c(c2)nc2n3CCOC2)n(C)n1 [Example 13-99]	0.00625
COc1cc(/C=N/NC(=O)c2sc(-c3ccccc3Cl)nc2C)cc(O)c1OC [Example 23-5]	10

Structure (SMILES)	minimal effective concentration [µM]
CCCOc1ccccc1-c1nc(C)c(C(=O)N/N=C/c2cc(C)c(O)c(C)c2)s1 [Example 23-55]	1
Cc1cc(/C=N/NC(=O)c2cc(-c3ccc(Cl)cc3Cl)n[nH]2)cc(C)c1O [Example 21-11]	1
COc1cc(F)ccc1-c1cc(NC(=O)OCc2ccc3c(c2)nc2n3CCCC2)n(C)n1 [Example 9-265]	1
CCn1cnc2cc(COC(=O)Nc3sc(-c4ccc(C)cc4OC)nc3C)ccc21 [Example 9-60]	0.00625
CCn1nc(-c2ccc(C)cc2OC)cc1NC(=O)OCc1ccc2c(c1)nc1n2CCOC1 [Example 9-250]	0.025
COc1ccccc1-c1nc(C)c(C(=O)N/N=C/c2ccc3c(c2)CCO3)s1 [Example 23-153]	0.1
CCn1nc(-c2ccc(C)cc2C)cc1COC(=O)Nc1ccc2c(c1)nc1n2CCOC1 [Example 13-104]	0.025
CCn1cnc2cc(NC(=O)OCc3cc(-c4ccc(Cl)cc4OC)nn3C)ccc21 [Example 13-86]	0.00625
COc1cc(F)ccc1-c1nc(C)c(NC(=O)OCc2ccc3c(c2)nc2n3CCOC2)s1 [Example 9-92]	0.00625
Cc1cc(F)ccc1-c1nc(C)c(COC(=O)Nc2ccc3c(c2)ncn3C)s1 [Example 13-9]	0.025
CCn1ncc2cc(COC(=O)Nc3sc(-c4ccccc4OC)nc3C)ccc21 [Example 9-134]	0.025
CCN(Cc1ccc(OC)cc1)NC(=O)c1sc(-c2ccc(Cl)cc2C)nc1C [Example 16-15]	1
CCn1ncc2cc(COC(=O)Nc3cc(-c4ccc(Cl)cc4OC)ns3)ccc21 [Example 45-4]	10
Cc1ccc(-c2nc(C)c(NC(=O)OCc3ccc4c(c3)nc3n4CCCCC3)s2)c(C)c1 [Example 9-124]	10
COc1ccc(/C=N/NC(=O)c2cnc(-c3ccc(Cl)cc3)[nH]2)cc1O [Example 25-1, 2-(4-Chlorophenyl)-3H-imidazole-4-carboxylic acid[1-(3-hydroxy-4-methoxyphenyl)methylidene]hydrazide]	10
COc1ccc(CN(C)NC(=O)c2cc(-c3ccccc3OC)oc2C)cc1 [Example 20-1, 5-(2-Methoxyphenyl)-2-methylfuran-3-carboxylic acid N′-(4-methoxybenzyl)-N′-methyl hydrazide]	10
COc1ccc(CN(C)NC(=O)c2sc(-c3ccc(Cl)cc3C)nc2C)cc1 [Example 16-6]	0.1
Cc1ccncc1-c1nc(C)c(C(=O)N/N=C/c2cc(C)c(O)c(C)c2)s1 [Example 23-136]	1
COc1ccccc1-c1nc(C)c(NC(=O)OCc2ccc3c(c2)nc2n3CCOC2)s1 [Example 9-91]	0.025
COc1cc(Cl)ccc1-c1nc(C)c(C(=O)N/N=C/c2cccc3[nH]ccc23)s1 [Example 23-94]	1
CCn1nc(-c2ccc(Cl)cc2Cl)cc1NC(=O)OCc1ccc2c(c1)ncn2CC [Example 9-210]	0.1
CCN(Cc1ccc(OC)cc1)NC(=O)c1sc(-c2ccc(Cl)cc2OC)nc1C [Example 16-13]	0.1
